T1: SsTsr3 (Saccharolobus solfataricus, UniProt Q9UWV6)
T1 sequence (Q9UWV6 1-166): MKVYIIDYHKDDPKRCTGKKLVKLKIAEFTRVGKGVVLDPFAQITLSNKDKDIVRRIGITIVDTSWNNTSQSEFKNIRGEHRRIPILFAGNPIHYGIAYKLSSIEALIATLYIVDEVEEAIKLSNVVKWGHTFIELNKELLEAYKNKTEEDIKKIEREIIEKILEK

T2: SsTsr3 (Sulfolobus solfataricus, UniProt Q9UWV6 1-166)
T2 sequence: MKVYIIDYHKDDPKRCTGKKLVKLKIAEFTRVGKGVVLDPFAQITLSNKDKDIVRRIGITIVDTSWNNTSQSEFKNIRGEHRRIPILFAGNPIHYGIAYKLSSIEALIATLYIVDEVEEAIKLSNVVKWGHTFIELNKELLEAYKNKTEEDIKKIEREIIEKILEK


Columns and labels:
SsTsr3 [1] = target: T1, SsTsr3; assay: tryptophan fluorescence quenching; assay type: binding
VdTsr3 = VdTsr3 (Vulcanisaeta distributa, UniProt E1QU22); conditions: co-purified endogenous E. coli SAM
Sequence of VdTsr3 (E1QU22 whole entry): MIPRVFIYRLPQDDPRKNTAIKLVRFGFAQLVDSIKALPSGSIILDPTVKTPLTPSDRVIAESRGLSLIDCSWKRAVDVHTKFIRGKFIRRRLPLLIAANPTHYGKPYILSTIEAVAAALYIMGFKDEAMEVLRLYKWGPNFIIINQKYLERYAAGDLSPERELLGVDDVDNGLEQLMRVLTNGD

SsTsr3 [2] = target: SsTsr3 (Saccharolobus solfataricus, UniProt Q9UWV6, T17A); assay: biochemical
Sequence of SsTsr3 (Saccharolobus solfataricus, UniProt Q9UWV6, T17A) (Q9UWV6 whole entry T17A): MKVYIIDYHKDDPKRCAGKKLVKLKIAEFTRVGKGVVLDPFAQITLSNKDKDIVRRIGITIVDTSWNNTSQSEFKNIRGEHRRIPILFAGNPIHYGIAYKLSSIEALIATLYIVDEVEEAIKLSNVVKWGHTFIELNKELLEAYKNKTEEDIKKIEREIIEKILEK

SsTsr3 [3] = target: SsTsr3 (Saccharolobus solfataricus, UniProt Q9UWV6, D63A); assay: biochemical
Sequence of SsTsr3 (Saccharolobus solfataricus, UniProt Q9UWV6, D63A) (Q9UWV6 whole entry D63A): as the sequence (Q9UWV6 whole entry T17A) above, with A17T, D63A counted along it

SsTsr3 [4] = target: SsTsr3 (Saccharolobus solfataricus, UniProt Q9UWV6, T17D); assay: biochemical
Sequence of SsTsr3 (Saccharolobus solfataricus, UniProt Q9UWV6, T17D) (Q9UWV6 whole entry T17D): as the sequence (Q9UWV6 whole entry T17A) above, with A17D counted along it

SsTsr3 [5] = target: T2, SsTsr3; assay: fluorescence anisotropy

Kd (SsTsr3 [1])	Kd (SsTsr3 [2])	Kd (SsTsr3 [3])	Kd (SsTsr3 [4])	Molecule	X-ray crystal structure, 1.6 Å (Se-SAD) (VdTsr3)	Kd (SsTsr3 [5])
6.5 µM	3900 µM	11 µM	11200 µM	C[S+](CC[C@H](N)C(=O)O)C[C@H]1O[C@@H](n2cnc3c(N)ncnc32)[C@H](O)[C@@H]1O (stereo partly drawn) [SAM]	VdTsr3 was purified and crystallized in complex with endogenous (E. coli) SAM	–
–	–	–	–	UUUUUUUUU (ssRNA) [oligo-U9 RNA]	–	6 µM

— paper PMC4872110 (Nucleic Acids Research, 2016)
